Measurements from BigSolDB 2.1.

## O=P1(Oc2ccccc2)OCC2(CO1)COP(=O)(Oc1ccccc1)OC2 (centres undefined)
In 1,4-dioxane, 293.26 K
  solubility (mole fraction): 0.00132
In 1,4-dioxane, 298.45 K
  solubility (mole fraction): 0.00152
In 1,4-dioxane, 303.26 K
  solubility (mole fraction): 0.00181
In 1,4-dioxane, 308.67 K
  solubility (mole fraction): 0.00214
In 1,4-dioxane, 313.24 K
  solubility (mole fraction): 0.00253
In 1,4-dioxane, 318.36 K
  solubility (mole fraction): 0.00294
In 1,4-dioxane, 323.35 K
  solubility (mole fraction): 0.00335
In 1,4-dioxane, 328.23 K
  solubility (mole fraction): 0.00383
In 1,4-dioxane, 333.36 K
  solubility (mole fraction): 0.00438
In 1,4-dioxane, 338.25 K
  solubility (mole fraction): 0.00499
In 2-butanone, 293.15 K
  solubility (mole fraction): 0.00399
In 2-butanone, 298.16 K
  solubility (mole fraction): 0.00446
In 2-butanone, 303.17 K
  solubility (mole fraction): 0.00506
In 2-butanone, 308.18 K
  solubility (mole fraction): 0.00575
In 2-butanone, 313.16 K
  solubility (mole fraction): 0.00638
In 2-butanone, 318.19 K
  solubility (mole fraction): 0.00733
In 2-butanone, 323.15 K
  solubility (mole fraction): 0.00809
In 2-ethoxyethanol, 293.24 K
  solubility (mole fraction): 0.00325
In 2-ethoxyethanol, 298.24 K
  solubility (mole fraction): 0.00392
In 2-ethoxyethanol, 303.16 K
  solubility (mole fraction): 0.00455
In 2-ethoxyethanol, 308.17 K
  solubility (mole fraction): 0.00543
In 2-ethoxyethanol, 313.23 K
  solubility (mole fraction): 0.00637
In 2-ethoxyethanol, 318.16 K
  solubility (mole fraction): 0.00756
In 2-ethoxyethanol, 323.18 K
  solubility (mole fraction): 0.00897
In 2-ethoxyethanol, 328.15 K
  solubility (mole fraction): 0.0104
In 2-ethoxyethanol, 333.16 K
  solubility (mole fraction): 0.0122
In 2-ethoxyethanol, 338.17 K
  solubility (mole fraction): 0.014
In 2-ethoxyethanol, 343.16 K
  solubility (mole fraction): 0.0161
In 2-ethoxyethanol, 348.17 K
  solubility (mole fraction): 0.0185
In 2-ethoxyethanol, 353.16 K
  solubility (mole fraction): 0.0215
In 2-ethoxyethanol, 358.16 K
  solubility (mole fraction): 0.0244
In 2-ethoxyethanol, 363.17 K
  solubility (mole fraction): 0.0277
In 2-ethoxyethanol, 368.16 K
  solubility (mole fraction): 0.0319
In THF, 293.53 K
  solubility (mole fraction): 0.00524
In THF, 298.16 K
  solubility (mole fraction): 0.00615
In THF, 303.49 K
  solubility (mole fraction): 0.00727
In THF, 308.25 K
  solubility (mole fraction): 0.00845
In THF, 313.35 K
  solubility (mole fraction): 0.00996
In THF, 318.31 K
  solubility (mole fraction): 0.0115
In THF, 323.35 K
  solubility (mole fraction): 0.0133
In THF, 328.46 K
  solubility (mole fraction): 0.0153
In acetone, 293.17 K
  solubility (mole fraction): 0.00237
In acetone, 298.16 K
  solubility (mole fraction): 0.00275
In acetone, 303.26 K
  solubility (mole fraction): 0.00322
In acetone, 308.57 K
  solubility (mole fraction): 0.00371
In acetone, 313.24 K
  solubility (mole fraction): 0.00421
In acetone, 318.07 K
  solubility (mole fraction): 0.00479
In acetone, 323.25 K
  solubility (mole fraction): 0.00542
In acetone, 328.36 K
  solubility (mole fraction): 0.00622
In acetonitrile, 293.31 K
  solubility (mole fraction): 0.00156
In acetonitrile, 298.17 K
  solubility (mole fraction): 0.00187
In acetonitrile, 303.26 K
  solubility (mole fraction): 0.00223
In acetonitrile, 308.57 K
  solubility (mole fraction): 0.00273
In acetonitrile, 313.35 K
  solubility (mole fraction): 0.00318
In acetonitrile, 318.24 K
  solubility (mole fraction): 0.00375
In acetonitrile, 323.36 K
  solubility (mole fraction): 0.00438
In acetonitrile, 328.27 K
  solubility (mole fraction): 0.00522
In acetonitrile, 333.35 K
  solubility (mole fraction): 0.00614
In acetonitrile, 338.56 K
  solubility (mole fraction): 0.00738
In acetonitrile, 343.44 K
  solubility (mole fraction): 0.00841
In benzene, 293.17 K
  solubility (mole fraction): 0.00119
In benzene, 298.16 K
  solubility (mole fraction): 0.00121
In benzene, 304.76 K
  solubility (mole fraction): 0.00124
In benzene, 308.37 K
  solubility (mole fraction): 0.00127
In benzene, 313.55 K
  solubility (mole fraction): 0.00129
In benzene, 318.26 K
  solubility (mole fraction): 0.00133
In benzene, 323.24 K
  solubility (mole fraction): 0.00136
In benzene, 328.43 K
  solubility (mole fraction): 0.00138
In benzene, 333.46 K
  solubility (mole fraction): 0.00141
In benzene, 338.34 K
  solubility (mole fraction): 0.00143
In benzene, 343.26 K
  solubility (mole fraction): 0.00145
In benzene, 348.35 K
  solubility (mole fraction): 0.00147
In chloroform, 293.25 K
  solubility (mole fraction): 0.00224
In chloroform, 298.17 K
  solubility (mole fraction): 0.00319
In chloroform, 303.25 K
  solubility (mole fraction): 0.00436
In chloroform, 308.56 K
  solubility (mole fraction): 0.00611
In chloroform, 313.25 K
  solubility (mole fraction): 0.00806
In chloroform, 318.25 K
  solubility (mole fraction): 0.0106
In chloroform, 323.04 K
  solubility (mole fraction): 0.0139
In chloroform, 328.35 K
  solubility (mole fraction): 0.0188
In chloroform, 333.13 K
  solubility (mole fraction): 0.0234
In dichloromethane, 293.16 K
  solubility (mole fraction): 0.00103
In dichloromethane, 299.22 K
  solubility (mole fraction): 0.00127
In dichloromethane, 303.86 K
  solubility (mole fraction): 0.00146
In dichloromethane, 307.6 K
  solubility (mole fraction): 0.00167
In diethyl ether, 291.95 K
  solubility (mole fraction): 0.00179
In diethyl ether, 295.37 K
  solubility (mole fraction): 0.00204
In diethyl ether, 299.26 K
  solubility (mole fraction): 0.00234
In diethyl ether, 303.55 K
  solubility (mole fraction): 0.00275
In ethanol, 298.16 K
  solubility (mole fraction): 0.00136
In ethanol, 303.15 K
  solubility (mole fraction): 0.00157
In ethanol, 308.16 K
  solubility (mole fraction): 0.00187
In ethanol, 313.14 K
  solubility (mole fraction): 0.00218
In ethanol, 318.16 K
  solubility (mole fraction): 0.00246
In ethanol, 323.16 K
  solubility (mole fraction): 0.00288
In ethanol, 328.17 K
  solubility (mole fraction): 0.00329
In ethanol, 333.16 K
  solubility (mole fraction): 0.00383
In ethanol, 338.16 K
  solubility (mole fraction): 0.00426
In ethanol, 343.15 K
  solubility (mole fraction): 0.00485
In ethyl acetate, 293.25 K
  solubility (mole fraction): 0.00107
In ethyl acetate, 298.46 K
  solubility (mole fraction): 0.00132
In ethyl acetate, 303.27 K
  solubility (mole fraction): 0.00158
In ethyl acetate, 308.66 K
  solubility (mole fraction): 0.00193
In ethyl acetate, 313.27 K
  solubility (mole fraction): 0.0023
In ethyl acetate, 318.35 K
  solubility (mole fraction): 0.00281
In ethyl acetate, 323.35 K
  solubility (mole fraction): 0.00334
In ethyl acetate, 328.26 K
  solubility (mole fraction): 0.00392
In ethyl acetate, 333.37 K
  solubility (mole fraction): 0.00459
In ethyl acetate, 338.26 K
  solubility (mole fraction): 0.00539
In methanol, 293.24 K
  solubility (mole fraction): 0.00271
In methanol, 298.24 K
  solubility (mole fraction): 0.00298
In methanol, 303.16 K
  solubility (mole fraction): 0.00329
In methanol, 308.17 K
  solubility (mole fraction): 0.00365
In methanol, 313.23 K
  solubility (mole fraction): 0.00401
In methanol, 318.16 K
  solubility (mole fraction): 0.00443
In methanol, 323.15 K
  solubility (mole fraction): 0.00483
In pyridine, 293.43 K
  solubility (mole fraction): 0.00813
In pyridine, 298.35 K
  solubility (mole fraction): 0.00885
In pyridine, 303.51 K
  solubility (mole fraction): 0.00964
In pyridine, 308.35 K
  solubility (mole fraction): 0.0104
In pyridine, 313.35 K
  solubility (mole fraction): 0.0114
In pyridine, 318.31 K
  solubility (mole fraction): 0.0123
In pyridine, 323.35 K
  solubility (mole fraction): 0.0132
In pyridine, 328.45 K
  solubility (mole fraction): 0.0141
In toluene, 298.17 K
  solubility (mole fraction): 0.00115
In toluene, 303.25 K
  solubility (mole fraction): 0.00143
In toluene, 308.56 K
  solubility (mole fraction): 0.00185
In toluene, 313.34 K
  solubility (mole fraction): 0.00229
In toluene, 318.26 K
  solubility (mole fraction): 0.00285
In toluene, 323.37 K
  solubility (mole fraction): 0.00352
In toluene, 328.25 K
  solubility (mole fraction): 0.00424
In toluene, 333.34 K
  solubility (mole fraction): 0.00536
In toluene, 338.56 K
  solubility (mole fraction): 0.00646
In toluene, 343.45 K
  solubility (mole fraction): 0.00781
In water, 293.18 K
  solubility (mole fraction): 0.00014
In water, 298.77 K
  solubility (mole fraction): 0.0002
In water, 308.37 K
  solubility (mole fraction): 0.0003
In water, 313.56 K
  solubility (mole fraction): 0.00037
In water, 318.25 K
  solubility (mole fraction): 0.0005
In water, 323.24 K
  solubility (mole fraction): 0.00064
In water, 328.43 K
  solubility (mole fraction): 0.00086
In water, 333.45 K
  solubility (mole fraction): 0.00116
In water, 338.36 K
  solubility (mole fraction): 0.00148
In water, 343.26 K
  solubility (mole fraction): 0.00188
In water, 348.35 K
  solubility (mole fraction): 0.00241
In water, 353.24 K
  solubility (mole fraction): 0.00295
In water, 358.25 K
  solubility (mole fraction): 0.00371
In water, 363.36 K
  solubility (mole fraction): 0.00477
In water, 368.25 K
  solubility (mole fraction): 0.00591
